Reference: US9221746B2, “Homo- and hetero-polyamino-acid derivatives of fullerene C60, method for producing same, and pharmaceutical compositions based on said derivatives” (priority 2011, dated 2015)

Tested on: A/Aichi/2/69 (H3N2) influenza virus
Assay: Induced influenza pneumonia in mice
[1] = LD70, intraperitoneally 100 mg/kg/day
[2] = LD90, intramuscularly 50 mg/kg/day
[3] = LD90, intramuscularly 100 mg/kg/day
[4] = LD90, intramuscularly 200 mg/kg/day
[5] = LD90, intraperitoneally 50 mg/kg/day
[6] = LD90, intraperitoneally 100 mg/kg/day

Fullerene Poly(Aminocaproic Acid) of Formula C60(H3){NH(CH2)5COO—}3{NH3^+(CH2)5COOH}3 [Agent No. 1]
Percent body weight change in days post infection (LD70, intraperitoneally 50 mg/kg/day, day 11): +36%
Percent body weight change in days post infection (LD70, intraperitoneally 50 mg/kg/day, day 13): +40%
Average lifetime (days) [1]: 13.7 (1-3 d.) days
Percent death protection (%) [1]: 60%
Percent body weight change in days post infection (LD70, intraperitoneally 100 mg/kg/day, day 1): +19%
Percent body weight change in days post infection (LD70, intraperitoneally 100 mg/kg/day, day 2): +23%
Percent body weight change in days post infection (LD70, intraperitoneally 100 mg/kg/day, day 3): +22%
Percent body weight change in days post infection (LD70, intraperitoneally 100 mg/kg/day, day 4): +18%
Percent body weight change in days post infection (LD70, intraperitoneally 100 mg/kg/day, day 5): +15%
Percent body weight change in days post infection (LD70, intraperitoneally 100 mg/kg/day, day 7): +18%
Percent body weight change in days post infection (LD70, intraperitoneally 100 mg/kg/day, day 9): +25%
Percent body weight change in days post infection (LD70, intraperitoneally 100 mg/kg/day, day 11): +33%
Percent body weight change in days post infection (LD70, intraperitoneally 100 mg/kg/day, day 13): +41%
Percent death protection (%) (LD70, intraperitoneally 200 mg/kg/day): 0%
Percent body weight change in days post infection (LD70, intraperitoneally 200 mg/kg/day, day 1): +7%
Percent body weight change in days post infection (LD70, intraperitoneally 200 mg/kg/day, day 2): +6%
Percent body weight change in days post infection (LD70, intraperitoneally 200 mg/kg/day, day 3): +5%
Percent body weight change in days post infection (LD70, intraperitoneally 200 mg/kg/day, day 4): −4%
Percent body weight change in days post infection (LD70, intraperitoneally 200 mg/kg/day, day 5): −3%
Percent body weight change in days post infection (LD70, intraperitoneally 200 mg/kg/day, day 7): −7%
Percent body weight change in days post infection (LD70, intraperitoneally 200 mg/kg/day, day 9): +4%
Percent body weight change in days post infection (LD70, intraperitoneally 200 mg/kg/day, day 11): +6%
Percent body weight change in days post infection (LD70, intraperitoneally 200 mg/kg/day, day 13): +15%
Average lifetime (days) (LD70, orally 100 mg/kg/day): 13.1 (1-8 d., 1-10 d., 1-11 d.) days
Percent death protection (%) (LD70, orally 100 mg/kg/day): 40%
Percent body weight change in days post infection (LD70, orally 100 mg/kg/day, day 1): +19%
Percent body weight change in days post infection (LD70, orally 100 mg/kg/day, day 2): +23%
Percent body weight change in days post infection (LD70, orally 100 mg/kg/day, day 3): +25%
Percent body weight change in days post infection (LD70, orally 100 mg/kg/day, day 4): +22%
Percent body weight change in days post infection (LD70, orally 100 mg/kg/day, day 5): +16%
Percent body weight change in days post infection (LD70, orally 100 mg/kg/day, day 7): +17%
Percent body weight change in days post infection (LD70, orally 100 mg/kg/day, day 9): +24%
Percent body weight change in days post infection (LD70, orally 100 mg/kg/day, day 11): +43%
Percent body weight change in days post infection (LD70, orally 100 mg/kg/day, day 13): +51%
Percent death protection (%) (LD70, orally 200 mg/kg/day): 70%
average lifetime (LD70, orally 200 mg/kg/day): >16 days
Percent body weight change in days post infection (LD70, orally 200 mg/kg/day, day 1): +26%
Percent body weight change in days post infection (LD70, orally 200 mg/kg/day, day 2): +31%
Percent body weight change in days post infection (LD70, orally 200 mg/kg/day, day 3): +36%
Percent body weight change in days post infection (LD70, orally 200 mg/kg/day, day 4): +36%
Percent body weight change in days post infection (LD70, orally 200 mg/kg/day, day 5): +36%
Percent body weight change in days post infection (LD70, orally 200 mg/kg/day, day 7): +38%
Percent body weight change in days post infection (LD70, orally 200 mg/kg/day, day 9): +47%
Percent body weight change in days post infection (LD70, orally 200 mg/kg/day, day 11): +51%
Percent body weight change in days post infection (LD70, orally 200 mg/kg/day, day 13): +57%
Average lifetime (days) (LD70, orally 300 mg/kg/day): 12.8 (1-8 d., 2-9 d.) days
Percent death protection (%) (LD70, orally 300 mg/kg/day): 40%
Percent body weight change in days post infection (LD70, orally 300 mg/kg/day, day 1): +24%
Percent body weight change in days post infection (LD70, orally 300 mg/kg/day, day 2): +27%
Percent body weight change in days post infection (LD70, orally 300 mg/kg/day, day 3): +28%
Percent body weight change in days post infection (LD70, orally 300 mg/kg/day, day 4): +24%
Percent body weight change in days post infection (LD70, orally 300 mg/kg/day, day 5): +19%
Percent body weight change in days post infection (LD70, orally 300 mg/kg/day, day 7): +23%
Percent body weight change in days post infection (LD70, orally 300 mg/kg/day, day 9): +35%
Percent body weight change in days post infection (LD70, orally 300 mg/kg/day, day 11): +36%
Percent body weight change in days post infection (LD70, orally 300 mg/kg/day, day 13): +38%
Average lifetime (days) [2]: 11.4 (2-7 d., 1-8 d., 2-11 d) days
Percent death protection (%) [2]: 40%
Average lifetime (days) [3]: 13.0 (1-8 d., 1-9 d., 1-11 d.) days
Percent death protection (%) [3]: 60%
Average lifetime (days) [4]: 13.1 (1-7 d., 2-11 d) days
Percent death protection (%) [4]: 60%
Average lifetime (days) [5]: 11.5 (2-7 d. D-9 d., 2-11 d.) days
Percent death protection (%) [5]: 40%
Average lifetime (days) [6]: 10 D3-7 d., 2-8 d., 1-9 d.) days
Percent death protection (%) [6]: 30%
Average lifetime (days) (LD90, orally 100 mg/kg/day): 10.8 (2-7 d., 1-9 d., 2-10 d., 1-11 d) days
Percent death protection (%) (LD90, orally 100 mg/kg/day): 30%
Average lifetime (days) (LD90, orally 200 mg/kg/day): 13.4 (1-10 d., 2-11 d) days
Percent death protection (%) (LD90, orally 200 mg/kg/day): 60%
increase of lifetime (intramuscular, doses of 100 and 200 mg/kg/day): twofold
toxicity for infected mice (intraperitoneal, 200 mg/kg/day): toxic
efficiency of intraperitoneal treatment (intraperitoneal, only in doses of 50 and 100 mg/kg/day): efficient
